Experimental data published in PMC4113456, “Atypical Signaling and Functional Desensitization Response of MAS Receptor to Peptide Ligands” (PLoS ONE, 2014).

Target: T1, MAS (Homo sapiens, UniProt P04201)
T1 construct: expressed in transfected cells
T1 sequence (P04201 1-325): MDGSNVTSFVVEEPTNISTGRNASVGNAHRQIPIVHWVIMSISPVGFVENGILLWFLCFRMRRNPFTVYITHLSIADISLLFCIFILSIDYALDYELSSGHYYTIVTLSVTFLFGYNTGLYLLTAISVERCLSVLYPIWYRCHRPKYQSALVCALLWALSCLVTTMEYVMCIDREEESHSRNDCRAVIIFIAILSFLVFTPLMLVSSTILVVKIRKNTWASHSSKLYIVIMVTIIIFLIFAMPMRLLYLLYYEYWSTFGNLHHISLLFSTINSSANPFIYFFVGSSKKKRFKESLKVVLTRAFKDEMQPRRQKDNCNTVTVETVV
Assay: Calcium re-stimulation and antagonism assays, MAS expressing stable cells
Type: cell-based
Procedure: The assay was performed using FLIPR Calcium 5 assay kit (Molecular Devices, Sunnyvale, CA). For calcium measurements, cells at a density of 125,000 cells/well in 100 µl medium were seeded onto a 96-well clear bottom black cell culture plate that was pre-coated with poly-L-lysine. In the calcium assays the cell density of 125,000 cells/well was consistently maintained to minimize variability between independent experiments. The cells were seeded in induction media to induce MAS expression or in complete media for negative controls. The plate was maintained in a cell culture incubator for 26–28 h. The cells were then serum starved for 2 h by replacing the medium with 100 µl of serum free DMEM. In the case of pre-treatment with pan-inhibitor of G protein signaling, BIM-46187, the cells were initially serum starved for 1 h by replacing the medium with 50 µl of serum free DMEM. After 1 h, 50 µl of BIM-46187 was added to the cells to a final concentration of 25 µM and treated for another 1 h. Following serum starvation, 100 µl of calcium sensitive dye along with 2x (2.5 mM final concentration) probenecid (Life Technologies, Grand Island, NY) was added to the cells. During this step, AR-inverse agonist or BIM-46187 was also added at desired concentrations to the calcium dye preparation in case of experiments where cells were pre-treated with these inhibitors. The cells were maintained for one hour in the cell culture incubator. […] The instrument was programmed in FLEX mode to add ligands (50 µl at 5x concentration) to the cells and to monitor the fluorescence before and after adding the ligands. […]
For re-stimulation assays, the data is expressed as the percentage of maximum agonist stimulation to allow for ready comparison between individual experiments. For the IP1 assay, a standard curve was generated using the 4-Parameter logistic equation fit of the HTRF readings of IP1 standards using the SoftMax Pro software. […] In the luciferase assay, the luminescence measurements (RLU) are presented as a ratio of firefly to renilla luciferase activity. […]

Row | SMILES | Response to second agonist (NPFF or AR-agonist) after first stimulation with the ligand (re-stimulation assay, second ligand at 600 s) | Inhibition of NPFF calcium response (first ligand at 25 µM, then NPFF) | Inhibition of AR-agonist calcium dose-response by pre-treatment (pre-treatment at 25 µM)
1 | COc1cc([N+](=O)[O-])ccc1S(=O)(=O)N1CC(CN2CCN(c3ccccn3)CC2)C(c2cccc(F)c2)C1 (stereo not drawn) [AR-agonist] | did not respond | – | –
2 | C=CCCN1CCC2(CC1)CN(C(=O)c1c(F)cccc1F)c1ccc(Cl)cc12 [AR-inverse] | – | completely inhibited | complete inhibition
